Measured values as given in US7138361B2, “Herbicidal heterocycles” (E. I. du Pont de Nemours and Company, priority 2000, dated 2006).

Tests used:
Format in all cases: in vivo
[1] = tested on: wild oat (Avena fatua); experiment: Test B postemergence; conditions: Rate 500 g/ha, scale 0 to 100, 0 is no effect, 100 is complete control, 13 to 15 days
Summary of the method: (§1)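 Greenhouse test: chemicals are formulated in a surfactant-containing non-phytotoxic solvent and applied either preemergence to planted seeds or postemergence to plants 2 to 18 cm tall. Response is rated visually versus controls after 13 to 15 days, 0 meaning no effect and 100 complete control.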

[2] = tested on: velvetleaf (Abutilon theophrasti); experiment: Test B postemergence; conditions: Rate 500 g/ha, scale 0 to 100, 0 is no effect, 100 is complete control, 13 to 15 days
Summary of the method: as §1

[3] = tested on: wheat (Triticum aestivum); experiment: Test B postemergence; conditions: Rate 500 g/ha, scale 0 to 100, 0 is no effect, 100 is complete control, 13 to 15 days
Summary of the method: as §1

[4] = tested on: lambsquarters (Chenopodium album); experiment: Test B postemergence; conditions: Rate 500 g/ha, scale 0 to 100, 0 is no effect, 100 is complete control, 13 to 15 days
Summary of the method: as §1

[5] = tested on: corn (Zea mays); experiment: Test B postemergence; conditions: 13 to 15 days
Summary of the method: as §1

[6] = tested on: barnyardgrass (Echinochloa crus-galli); experiment: Test B postemergence; conditions: 13 to 15 days
Summary of the method: as §1

[7] = tested on: Surinam grass (Brachiaria decumbens); experiment: Test B postemergence; conditions: 13 to 15 days
Summary of the method: as §1

[8] = tested on: pigweed (Amaranthus retroflexus); experiment: Test B postemergence; conditions: Rate 500 g/ha, scale 0 to 100, 0 is no effect, 100 is complete control, 13 to 15 days
Summary of the method: as §1

[9] = tested on: blackgrass (Alopecurus myosuroides); experiment: Test B postemergence; conditions: 13 to 15 days
Summary of the method: as §1

[10] = tested on: morning glory (Ipomoea hederacea); experiment: Test B postemergence; conditions: Rate 500 g/ha, scale 0 to 100, 0 is no effect, 100 is complete control, 13 to 15 days
Summary of the method: as §1

[11] = tested on: giant foxtail (Setaria faberii); experiment: Test B postemergence; conditions: 13 to 15 days
Summary of the method: as §1

[12] = tested on: crabgrass (Digitaria sanguinalis); experiment: Test B postemergence; conditions: 13 to 15 days
Summary of the method: as §1

[13] = tested on: cocklebur (Xanthium strumarium); experiment: Test B postemergence; conditions: 13 to 15 days
Summary of the method: as §1

[14] = tested on: rice (Oryza saliva); experiment: Test B preemergence
Summary of the method: as §1

[15] = tested on: velvetleaf (Abutilon theophrasti); experiment: Test B preemergence
Summary of the method: as §1

[16] = tested on: lambsquarters (Chenopodium album); experiment: Test B preemergence
Summary of the method: as §1

[17] = tested on: corn (Zea mays); experiment: Test B preemergence
Summary of the method: as §1

[18] = tested on: barnyardgrass (Echinochloa crus-galli); experiment: Test B preemergence
Summary of the method: as §1

[19] = tested on: Surinam grass (Brachiaria decumbens); experiment: Test B preemergence
Summary of the method: as §1

[20] = tested on: pigweed (Amaranthus retroflexus); experiment: Test B preemergence
Summary of the method: as §1

[21] = tested on: morning glory (Ipomoea hederacea); experiment: Test B preemergence
Summary of the method: as §1

[22] = tested on: giant foxtail (Setaria faberii); experiment: Test B preemergence
Summary of the method: as §1

[23] = tested on: crabgrass (Digitaria sanguinalis); experiment: Test B preemergence
Summary of the method: as §1

[24] = tested on: cocklebur (Xanthium strumarium); experiment: Test B preemergence
Summary of the method: as §1

[25] = tested on: Sunflower; experiment: Test C preemergence; conditions: Rate 250 g/ha, scale 0 to 100, 0 no effect, 100 complete control
[26] = tested on: Nightshade; experiment: Test C preemergence; conditions: Rate 500 g/ha, visual evaluation after 12 to 14 days
[27] = Rate 125 g/ha, scale 0 (no effect) to 100 (complete control)
[28] = Rate 500 g/ha, scale 0 to 100, 0 is no effect, 100 is complete control
[29] = Preemergence, Rate 500 g/ha, scale 0 to 100, 0 no effect, 100 complete control
[30] = preemergence, Rate 125 g/ha, scale of 0 to 100 where 0 is no effect and 100 is complete control, 13 to 15 days

Compound: CCC(C)c1ccn(C2CCN(c3cccc(OC)c3)C2=O)n1 (stereo not shown) [Compound 95]
- Plant response rating, Wild Oat [1]: 0
- Plant response rating, Velvetleaf [2]: 0
- Plant response rating, Wheat [3]: 0
- Plant response rating, Lambsquarters [4]: 90
- Plant response rating, Corn [5, 27]: 0
- Plant response rating, Corn [5, 28]: 0
- Plant response rating, Barnyardgrass [6, 27]: 0
- Plant response rating, Barnyardgrass [6, 28]: 30
- Plant response rating, Surinam grass [7, 27]: 0
- Plant response rating, Surinam grass [7, 28]: 0
- Plant response rating, Pigweed [8]: 60
- Plant response rating, Blackgrass [9, 27]: 0
- Plant response rating, Blackgrass [9, 28]: 0
- Plant response rating, Morningglory [10]: 20
- Plant response rating, Foxtail, Giant [11, 27]: 0
- Plant response rating, Foxtail, Giant [11, 28]: 0
- Plant response rating, Crabgrass [12, 27]: 0
- Plant response rating, Crabgrass [12, 28]: 20
- Plant response rating, Cocklebur [13, 27]: 0
- Plant response rating, Cocklebur [13, 28]: 20
- Plant response rating, Rice [14, 29]: 100
- Plant response rating, Rice [14, 30]: 90
- Plant response rating, Velvetleaf [15, 29]: 50
- Plant response rating, Velvetleaf [15, 30]: 0
- Plant response rating, Lambsquarters [16, 29]: 100
- Plant response rating, Lambsquarters [16, 30]: 100
- Plant response rating, Corn [17, 29]: 50
- Plant response rating, Corn [17, 30]: 20
- Plant response rating, Barnyardgrass [18, 29]: 100
- Plant response rating, Barnyardgrass [18, 30]: 90
- Plant response rating, Surinam grass [19, 29]: 90
- Plant response rating, Surinam grass [19, 30]: 60
- Plant response rating, Pigweed [20, 29]: 100
- Plant response rating, Pigweed [20, 30]: 100
- Plant response rating, Morningglory [21, 29]: 60
- Plant response rating, Morningglory [21, 30]: 0
- Plant response rating, Foxtail, Giant [22, 29]: 100
- Plant response rating, Foxtail, Giant [22, 30]: 100
- Plant response rating, Crabgrass [23, 29]: 100
- Plant response rating, Crabgrass [23, 30]: 100
- Plant response rating, Cocklebur [24, 29]: 60
- Plant response rating, Cocklebur [24, 30]: 0
- Plant response rating, Sunflower [25]: 0
- Plant response rating (0 to 100), Nightshade [26]: 45

Compound: CCC(CC)c1ccn(C2CCN(c3cccc(OC)c3)C2=O)n1 (stereo not shown) [Compound 96]
- Plant response rating, Wild Oat [1]: 0
- Plant response rating, Velvetleaf [2]: 10
- Plant response rating, Wheat [3]: 0
- Plant response rating, Lambsquarters [4]: 90
- Plant response rating, Corn [5, 27]: 0
- Plant response rating, Corn [5, 28]: 0
- Plant response rating, Barnyardgrass [6, 27]: 0
- Plant response rating, Barnyardgrass [6, 28]: 90
- Plant response rating, Surinam grass [7, 27]: 0
- Plant response rating, Surinam grass [7, 28]: 0
- Plant response rating, Pigweed [8]: 90
- Plant response rating, Blackgrass [9, 27]: 0
- Plant response rating, Blackgrass [9, 28]: 0
- Plant response rating, Morningglory [10]: 50
- Plant response rating, Foxtail, Giant [11, 27]: 0
- Plant response rating, Foxtail, Giant [11, 28]: 40
- Plant response rating, Crabgrass [12, 27]: 20
- Plant response rating, Crabgrass [12, 28]: 70
- Plant response rating, Cocklebur [13, 27]: 10
- Plant response rating, Cocklebur [13, 28]: 20
- Plant response rating, Rice [14, 29]: 100
- Plant response rating, Rice [14, 30]: 70
- Plant response rating, Velvetleaf [15, 29]: 50
- Plant response rating, Velvetleaf [15, 30]: 0
- Plant response rating, Lambsquarters [16, 29]: 100
- Plant response rating, Lambsquarters [16, 30]: 100
- Plant response rating, Corn [17, 29]: 20
- Plant response rating, Corn [17, 30]: 0
- Plant response rating, Barnyardgrass [18, 29]: 100
- Plant response rating, Barnyardgrass [18, 30]: 100
- Plant response rating, Surinam grass [19, 29]: 80
- Plant response rating, Surinam grass [19, 30]: 50
- Plant response rating, Pigweed [20, 29]: 100
- Plant response rating, Pigweed [20, 30]: 100
- Plant response rating, Morningglory [21, 29]: 80
- Plant response rating, Morningglory [21, 30]: 0
- Plant response rating, Foxtail, Giant [22, 29]: 100
- Plant response rating, Foxtail, Giant [22, 30]: 100
- Plant response rating, Crabgrass [23, 29]: 100
- Plant response rating, Crabgrass [23, 30]: 100
- Plant response rating, Cocklebur [24, 29]: 30
- Plant response rating, Cocklebur [24, 30]: 20
- Plant response rating, Sunflower [25]: 50
- Plant response rating (0 to 100), Nightshade [26]: 80
